Measured values: US4349625A, “Method for assaying fatty acids” (Mitsubishi Chemical Industries Limited, priority 1979, dated 1982)
Structures can show the parent of a compound that is named as a salt. One block for each molecule: values may come before it.

Assays:
Type in all cases: biochemical
[1] = molecular target: T1, FFA-albumin linkage (human serum albumin) (Homo sapiens, UniProt P02768); experiment: Example 1: rate of ACS-coupled NADH reaction (Procedure A) on FFA sample containing albumin, with dissociating agent; details: sample 0.5 mM FFA + 2.5% human serum albumin, 37° C.
T1 sequence (P02768 25-609): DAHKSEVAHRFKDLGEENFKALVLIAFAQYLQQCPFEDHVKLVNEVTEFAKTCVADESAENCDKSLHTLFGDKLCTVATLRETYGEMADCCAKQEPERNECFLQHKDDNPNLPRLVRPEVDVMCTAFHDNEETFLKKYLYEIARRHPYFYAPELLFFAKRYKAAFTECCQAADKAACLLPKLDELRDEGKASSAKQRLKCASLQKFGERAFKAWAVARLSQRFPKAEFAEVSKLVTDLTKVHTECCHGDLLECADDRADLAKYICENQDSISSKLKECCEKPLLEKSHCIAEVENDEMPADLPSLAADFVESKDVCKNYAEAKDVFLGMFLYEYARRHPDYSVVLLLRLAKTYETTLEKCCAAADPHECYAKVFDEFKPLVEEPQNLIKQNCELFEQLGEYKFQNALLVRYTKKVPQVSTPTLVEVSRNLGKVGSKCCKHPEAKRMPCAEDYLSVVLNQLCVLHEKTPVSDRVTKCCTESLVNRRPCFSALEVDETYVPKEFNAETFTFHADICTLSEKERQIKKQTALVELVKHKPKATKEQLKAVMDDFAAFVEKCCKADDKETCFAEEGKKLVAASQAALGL
Protocol: 100 mM Tris-HCl buffer pH 8.0 containing 2 mg/ml of Triton X-100, 2 mM 2Na-EDTA (disodium ethylenediaminetetraacetate) and 10 mM MgCl2.
40 mg of ATP disodium salt, 50 mg of potassium phosphoenolpyruvate, 20 U of myokinase (available from Boehringer Mannheim (B.M.), grade I), 15 U of pyruvate kinase (available from B.M., grade II) and 15 U of lactate dehydrogenase (available from B.M., derived from rabbit muscle) are dissolved in 1 ml of the above-mentioned buffer.
In 1 ml of the above buffer, 3 mg of NADH disodium salt is dissolved.
An ACS solution in 50% glycerine in a concentration of about 4 U/ml as prepared in Preparation 1 which is diluted with three volumes of water is used.
Aqueous 0.5 mM potassium oleate solution is used. […] The content of the microcell was then preheated at 37° C. in a spectrophotometer (Shimadzu, model UV-200) equipped with a thermostated cell holder. Thereafter 20 μl of the CoA solution was added to initiate the reaction and decrease in optical density (OD) at 340 nm was recorded with the elapse of time. From the data, the value of maximum ΔOD/min was calculated.

[2] = molecular target: T2, FFA-albumin linkage in human serum (Homo sapiens, UniProt P02768); experiment: Example 2: enzymatic assay of FFA in human serum samples (Procedure A) with dissociating agent
T2 construct: were replaced by human serum samples; from tissue; host or cells: human serum
T2 sequence (P02768 25-609): as above
Protocol: The reaction was continued for 15 minutes at 37° C., and the OD340 values were read just before the addition of CoA solution and 15 minutes later when the reaction was almost complete and decrease in OD ceased. As a sample blank distilled water was substituted for the ACS solution in the reaction systems and the reaction and measurement of OD were carried out in the same way.
The concentration of FFA in a serum sample was calculated by the following equation: [formula] where:
A=0D340 of the reaction system just before the addition of CoA solution;
B=OD340 of the reaction system after 15 minutes
C=OD340 just before the addition of CoA solution in the blank run, and
D=OD340 after 15 minutes in the blank run.

[3] = molecular target: T1, FFA-albumin linkage (human serum albumin); experiment: Example 3: ACS/ACO colorimetric FFA assay (Procedure B) on potassium oleate plus human serum albumin; details: 0.5% in assay system; sample 280 μM potassium oleate + 2.5% human serum albumin; without agent -0.016
Protocol: 100 mM Tris-HCl buffer pH 8.0 containing 3.2 mM Triton X-100, 2 mM disodium ethylenediaminetetraacetate and a dissociating agent such as a benzenesulfonate.
100 mM Tris-HCl buffer pH 8.0 containing 60 mM magnesium chloride.
A solution of 80 mg of ATP disodium salt and 20 U of myokinase dissolved in 40 ml of Buffer (1).
Prepared by adding 5 ml of the ACS solution in 50% glycerine with a concentration of about 4 U/ml as prepared in Preparation 1 to a solution of 25 mg of CoA in 5 ml of Buffer (2).
A suspension of ACO in 50% saturated ammonium sulfate having a concentration of about 50 U/ml and prepared as described in Preparation 2. […]
A mixture of 100 μl of a sample containing 280 μM potassium oleate and 2.5% human serum albumin, 400 μl of Enzyme Solution (1) and 100 μl of Enzyme Solution (2) was kept at 37° C. for 15 minutes. […] The reaction solution was placed into a cell having a thickness of 10 mm and the value (A) for optical density at 535 nm was measured. As a control, the sample was replaced by the same volume of water and the optical density value (B) was measured in the same way.
An aqueous potassium oleate solution which is free from albumin was separately prepared as a standard solution. This solution was substituted for the sample and the optical density value (C) was also measured in the same way. […]

[4] = dissociating agent 25 mM, control with albumin 0.019, without albumin 0.076
[5] = human serum C, solution of dissociating agent 20 mM, extraction method 560

FFA assayed ([2]; human serum A, solution of dissociating agent 20 mM, extraction method 1475): 1500 µM
FFA assayed ([2]; human serum B, solution of dissociating agent 20 mM, extraction method 370): 340 µM
FFA assayed [2, 5]: 570 µM
maximum ΔOD340/min ([1]; dissociating agent 5 mM): 0.035 ΔOD340/min
maximum ΔOD340/min ([1]; dissociating agent 10 mM): 0.040 ΔOD340/min
maximum ΔOD340/min ([1]; dissociating agent 20 mM): 0.045 ΔOD340/min
Structure (SMILES): O=C(O)CCCCCCCCCCCC(=O)O [Potassium salt of 1,11-undecamethylenedicarboxylic acid]

FFA assayed [2, 5]: 575 µM
maximum ΔOD340/min ([1]; dissociating agent 2.5 mM): 0.041 ΔOD340/min
maximum ΔOD340/min ([1]; dissociating agent 10 mM): 0.048 ΔOD340/min
Structure (SMILES): O=C(O)CCCCCCCCCCCCC(=O)O [Dipotassium 1,12-dodecamethylenedicarboxylate]

maximum ΔOD340/min ([1]; dissociating agent 2.5 mM): 0.032 ΔOD340/min
Structure (SMILES): O=C(O)CCCCCCCCCCCCCCCCC(=O)O [Dipotassium 1,16-hexadecamethylenedicarboxylate]

FFA assayed ([2]; human serum B, solution of dissociating agent 50 mM, extraction method 370): 335 µM
maximum ΔOD340/min ([1]; dissociating agent 5 mM): 0.028 ΔOD340/min
maximum ΔOD340/min ([1]; dissociating agent 10 mM): 0.031 ΔOD340/min
maximum ΔOD340/min ([1]; dissociating agent 20 mM): 0.034 ΔOD340/min
Structure (SMILES): O=C(O)CCCCCCCCCCC(=O)O [Potassium salt of decamethylenedicarboxylic acid]

FFA assayed ([2]; human serum B, solution of dissociating agent 10 mM, extraction method 370): 340 µM
FFA assayed ([2]; human serum C, solution of dissociating agent 10 mM, extraction method 560): 570 µM
maximum ΔOD340/min ([1]; dissociating agent 2.5 mM): 0.045 ΔOD340/min
Structure (SMILES): O=C(O)CCCCCCCCCCCCCCC(=O)O [Dipotassium 1,14-tetradecamethylenedicarboxylate]

The next lines start with the molecule.

Structure (SMILES): O=C(O)CCCCC(=O)O [Potassium salt of tetramethylenedicarboxylic acid, reference compound]
maximum ΔOD340/min [1, 4]: 0.015 ΔOD340/min

Structure (SMILES): CCCCCc1ccc(S(=O)(=O)[O-])cc1.[Na+] [Sodium p-n-amylbenzenesulfonate]
maximum ΔOD340/min ([1]; dissociating agent 50 mM): 0.030 ΔOD340/min

Structure (SMILES): Cc1ccc(S(=O)(=O)O)cc1 [Sodium p-toluenesulfonate]
FFA assayed ([2]; human serum C, solution of dissociating agent 1000 mM, extraction method 560): 585 µM
ΔOD535 [3]: 0.078
maximum ΔOD340/min ([1]; dissociating agent 100 mM): 0.030 ΔOD340/min

Structure (SMILES): O=C(O)CCCCCCC(=O)O [Potassium salt of hexamethylenedicarboxylic acid, reference compound]
maximum ΔOD340/min [1, 4]: 0.015 ΔOD340/min

Structure (SMILES): O=C(O)CCCCCCCCC(=O)O [Potassium salt of 1,8-octamethylenedicarboxylic acid]
maximum ΔOD340/min [1, 4]: 0.026 ΔOD340/min
